Reference: patent publication EP0808303B1, “5-(4-SUBST.-PIPERIDINYL-1)-3-ARYL-PENTANOIC ACID DERIVATIVES AS TACHYKININ RECEPTOR ANTAGONIST” (AstraZeneca AB, priority 1995, dated 1996)

Tests used:
human NK2 receptor = target: T1, human NK2 receptor (Homo sapiens, UniProt P21452)
T1 sequence (P21452 1-398): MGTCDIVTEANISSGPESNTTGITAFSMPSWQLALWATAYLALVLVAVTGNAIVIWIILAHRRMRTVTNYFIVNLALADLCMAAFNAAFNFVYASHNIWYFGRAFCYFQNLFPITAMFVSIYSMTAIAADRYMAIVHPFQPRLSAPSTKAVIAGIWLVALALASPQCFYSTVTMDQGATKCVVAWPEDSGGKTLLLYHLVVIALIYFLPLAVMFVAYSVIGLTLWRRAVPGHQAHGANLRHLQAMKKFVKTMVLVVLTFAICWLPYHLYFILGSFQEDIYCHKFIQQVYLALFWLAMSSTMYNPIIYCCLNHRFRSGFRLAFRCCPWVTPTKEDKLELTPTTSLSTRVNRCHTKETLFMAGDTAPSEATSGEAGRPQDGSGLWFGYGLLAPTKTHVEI

NK1 receptor = NK1 receptor (Oryctolagus cuniculus, UniProt G1SEI7); test: Rabbit Pulmonary Artery: NK1 in vitro functional assay (Test C); assay type: cell-based; conditions: -log molar KB against agonist ASMSP
NK1 receptor, sequence (G1SEI7 1-407): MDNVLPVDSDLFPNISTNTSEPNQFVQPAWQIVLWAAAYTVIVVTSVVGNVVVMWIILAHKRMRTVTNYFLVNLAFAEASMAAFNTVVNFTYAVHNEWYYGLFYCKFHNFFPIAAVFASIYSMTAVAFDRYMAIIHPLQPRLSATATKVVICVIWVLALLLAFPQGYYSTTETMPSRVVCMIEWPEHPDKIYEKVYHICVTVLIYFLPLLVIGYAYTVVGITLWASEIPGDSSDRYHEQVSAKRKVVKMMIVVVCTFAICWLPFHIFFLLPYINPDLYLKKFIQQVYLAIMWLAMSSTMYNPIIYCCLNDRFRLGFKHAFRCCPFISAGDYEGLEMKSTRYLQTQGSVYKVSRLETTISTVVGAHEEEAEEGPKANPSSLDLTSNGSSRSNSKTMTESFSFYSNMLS
Protocol: Rabbit Pulmonary Artery: NK1 in vitro functional assay (Test C)
Male New Zealand white rabbits are killed by lethal injection (Nembutal, 60 mg/kg into a cannulated ear vein). Heparin, 0.0025 ml/kg of a 1000 U/ml solution, is injected into the ear vein prior to nembutal in order to decrease blood coagulation. The left and right branches of the pulmonary artery are isolated from the rest of the lung tissue and cut in half to provide four ring segments from each animal. […] Changes in tension are measured on a Grass polygraph via Grass FT-03 force transducers. […]
Potencies of the compounds are determined by calculating the apparent dissociation constants (KB) for each concentration tested using the standard equation: KB = [antagonist]/(dose ratio - 1) [formula] where dose ratio = antilog[(agonist-log molar EC50 without compound) - (agonist-log molar EC50 with compound)]. The KB values are converted to the negative logarithms and expressed as -log molar KB (i.e. pKB). […] The EC50 values are converted to negative logarithms and expressed as -log molar EC50. Maximum relaxation responses to ASMSP are determined by expressing the maximum response to the agonist as a percentage of the relaxation caused by papaverine.

NK2 = target: T2, NK2 (Cavia porcellus, UniProt Q64077); test: Guinea Pig Trachea Assay: NK2 in vitro functional assay (Test D); assay type: cell-based; conditions: -log molar KB against agonist BANK
T2 construct: The trachea are removed, trimmed of excess tissue (including removal of epithelium) and cut in spiral fashion; from tissue; host or cells: guinea pig trachea strips
T2 sequence (Q64077 1-402): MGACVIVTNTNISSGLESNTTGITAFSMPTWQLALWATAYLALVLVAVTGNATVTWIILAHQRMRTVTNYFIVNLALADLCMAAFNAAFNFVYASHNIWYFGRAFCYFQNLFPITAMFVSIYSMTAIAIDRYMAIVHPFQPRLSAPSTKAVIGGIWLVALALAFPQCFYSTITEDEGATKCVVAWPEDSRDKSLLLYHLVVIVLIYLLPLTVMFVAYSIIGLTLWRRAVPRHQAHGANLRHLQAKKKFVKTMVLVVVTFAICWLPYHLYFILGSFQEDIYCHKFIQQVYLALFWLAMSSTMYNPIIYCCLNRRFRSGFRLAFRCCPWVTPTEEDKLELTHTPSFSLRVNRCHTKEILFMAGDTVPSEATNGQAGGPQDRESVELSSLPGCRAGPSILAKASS
Protocol: Guinea Pig Trachea Assay: NK2 in vitro functional assay (Test D)
Male guinea pigs are killed by a sharp blow to the back of the head followed by exsanguination. The trachea are removed, trimmed of excess tissue (including removal of epithelium) and cut in spiral fashion. Each longitudinally cut tracheal segment is suspended as a strip in a water-jacketed (37.5°C) tissue bath containing a physiological salt solution of the following composition (mM): NaCl, 119; KCl 4.6; CaCl2, 1.8; MgCl2, 0.5; NaH2PO4, 1; NaHCO3, 25; glucose, 11; and indomethacin, 0.005 (to inhibit cyclooxygenase); gassed continuously with 95% O2-%5 CO2. […] Contractile responses are measured on a Grass polygraph via Grass FT-03 force transducers. […]
Potencies of the compounds are evaluated by calculating apparent dissociation constants (KB) for each concentration tested using the standard equation: KB = [antagonist]/(dose ratio-1) [formula] where dose ratio = antilog[(agonist -log molar EC50 without compound) - (agonist-log molar EC50 with compound)]. The KB values are converted to the negative logarithms and expressed as -log molar KB (i.e. pKB). […] The EC50 values are converted to the negative logarithms and expressed as -log molar EC50. Maximum contractile responses to BANK are determined by expressing the maximum response to BANK as a percentage of the initial contraction caused by capasacin.

human NK1 receptor = target: T3, human NK1 receptor (Homo sapiens, UniProt P25103); test: SP Receptor Binding Assay (Test A); conditions: binding of SP at human NK1 receptor expressed in MEL cells
T3 construct: expressed in transfected cells; host or cells: Mouse Erythroleukemia (MEL) cells
T3 sequence (P25103 whole entry): as the sequence (G1SEI7 1-407) above, with F12S, D189N, A369P, E371D, N376T, G386C, N391D, Y402S, M405V counted along it
Source text: SP Receptor Binding Assay (Test A)
The human NK1 receptor was isolated and characterized as described in: B. Hopkins, et al. "Isolation and characterization of the human lung NK1 receptor cDNA" Biochem. Biophys. Res. Comm., 1991, 180, 1110-1117; and the NK1 receptor was expressed in Mouse Erythroleukemia (MEL) cells using a procedure similar to that described in Test B below.

O=C(CC(CCN1CCC(O)(c2ccccc2)CC1)c1ccc(Cl)c(Cl)c1)NCc1ccccc1 (stereo not shown) [Example 1, N-Benzyl-5-(4-hydroxy-4-phenylpiperidino)-3-(3,4-dichlorophenyl)pentanamide]
Ki (human NK2 receptor): 15 nM | pKB (NK1 receptor): 5.41 | Kb (NK2): 794 nM | Ki (human NK1 receptor): 30 nM
